The record followed here is ChEMBL document CHEMBL4038335, “Neuroactive Steroids. 2. 3α-Hydroxy-3β-methyl-21-(4-cyano-1H-pyrazol-1'-yl)-19-nor-5β-pregnan-20-one (SAGE-217): A Clinical Next Generation Neuroactive Steroid Positive Allosteric Modulator of the (γ-Aminobutyric Acid)A Receptor” (J Med Chem, 2017).

The IC50 is the concentration that gives 50% inhibition. Broadly, the EC50 is the concentration that produces a half-maximal response. Broadly, the Emax is the size of the effect at its maximum, as opposed to the concentration needed.

Chain of Gamma-aminobutyric acid receptor subunit alpha-4/beta3/delta (P28472 whole entry): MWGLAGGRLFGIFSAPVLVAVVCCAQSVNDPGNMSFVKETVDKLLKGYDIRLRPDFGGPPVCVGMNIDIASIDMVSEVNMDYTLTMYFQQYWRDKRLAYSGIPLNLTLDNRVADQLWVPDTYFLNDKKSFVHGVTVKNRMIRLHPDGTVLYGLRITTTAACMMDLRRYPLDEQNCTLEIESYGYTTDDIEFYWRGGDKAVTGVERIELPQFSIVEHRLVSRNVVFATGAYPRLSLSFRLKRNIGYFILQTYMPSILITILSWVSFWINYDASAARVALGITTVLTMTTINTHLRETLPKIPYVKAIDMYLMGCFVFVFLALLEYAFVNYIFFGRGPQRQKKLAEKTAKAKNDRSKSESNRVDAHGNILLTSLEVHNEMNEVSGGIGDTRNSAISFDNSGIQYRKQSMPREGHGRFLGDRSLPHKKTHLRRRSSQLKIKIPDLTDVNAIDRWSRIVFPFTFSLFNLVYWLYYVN
Chain of Gamma-aminobutyric acid receptor subunit alpha-4/beta3/delta (P48169 whole entry): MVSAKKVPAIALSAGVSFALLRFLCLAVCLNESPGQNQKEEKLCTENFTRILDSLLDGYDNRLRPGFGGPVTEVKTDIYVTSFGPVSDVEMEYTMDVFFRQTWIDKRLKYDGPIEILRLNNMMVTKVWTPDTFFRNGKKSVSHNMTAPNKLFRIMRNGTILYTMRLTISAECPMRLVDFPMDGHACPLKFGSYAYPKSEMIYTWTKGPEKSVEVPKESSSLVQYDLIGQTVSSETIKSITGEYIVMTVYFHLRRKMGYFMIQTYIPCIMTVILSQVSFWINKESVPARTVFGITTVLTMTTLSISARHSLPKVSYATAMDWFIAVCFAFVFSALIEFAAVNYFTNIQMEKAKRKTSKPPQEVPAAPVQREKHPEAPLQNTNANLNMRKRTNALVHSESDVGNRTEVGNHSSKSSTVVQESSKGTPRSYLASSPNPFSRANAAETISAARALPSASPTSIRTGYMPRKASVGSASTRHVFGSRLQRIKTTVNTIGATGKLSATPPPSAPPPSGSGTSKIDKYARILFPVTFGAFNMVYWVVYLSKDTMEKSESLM
Chain of Gamma-aminobutyric acid receptor subunit alpha-4/beta3/delta (O14764 whole entry): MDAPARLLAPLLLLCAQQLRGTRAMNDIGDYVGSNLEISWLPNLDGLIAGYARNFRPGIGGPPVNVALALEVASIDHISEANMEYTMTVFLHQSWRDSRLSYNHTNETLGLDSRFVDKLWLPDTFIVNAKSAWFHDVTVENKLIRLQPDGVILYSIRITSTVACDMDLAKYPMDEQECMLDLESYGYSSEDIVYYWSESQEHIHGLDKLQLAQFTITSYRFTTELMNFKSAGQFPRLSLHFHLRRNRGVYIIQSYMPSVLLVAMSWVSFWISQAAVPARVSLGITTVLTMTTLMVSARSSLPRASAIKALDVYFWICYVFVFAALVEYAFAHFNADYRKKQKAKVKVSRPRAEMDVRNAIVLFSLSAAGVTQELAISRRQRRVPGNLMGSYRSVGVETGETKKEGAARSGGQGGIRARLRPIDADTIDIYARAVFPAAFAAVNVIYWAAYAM

Test system in the first test: not listed separately
As to the kind of experiment: Displacement of [35S]TBPS from GABA-A receptor in Sprague-Dawley rat cerebral cortex cell membranes after 90 mins in presence of GABA by liquid scintillation counting.
Conditions: not given
A general note: Loss of bound radioactivity is the signal in a displacement assay; it reports binding, not function.
For `Cc1cnnn1CC(=O)[C@H]1CC[C@H]2[C@@H]3CC[C@@H]4C[C@](C)(O)CC[C@@H]4[C@H]3CC[C@]12C`, the IC50 was more than 3000 nM.

For `C[C@@]1(O)CC[C@H]2[C@H](CC[C@@H]3[C@@H]2CC[C@]2(C)[C@@H](C(=O)Cn4cc([N+](=O)[O-])cn4)CC[C@@H]32)C1`, the IC50 came to 18 nM.

As to `C[C@@]1(O)CC[C@H]2[C@H](CC[C@@H]3[C@@H]2CC[C@]2(C)[C@@H](C(=O)Cn4cc(C(N)=O)cn4)CC[C@@H]32)C1`, the IC50 worked out at 64 nM.

As for `COc1cnn(CC(=O)[C@H]2CC[C@H]3[C@@H]4CC[C@@H]5C[C@](C)(O)CC[C@@H]5[C@H]4CC[C@]23C)c1`, the IC50 came to 28 nM.

Another test deals with T1, GABA-A receptor; alpha-1/beta-2/gamma-2 (Homo sapiens, UniProt P14867+P18507+P47870).
T1 sequence (P14867 whole entry): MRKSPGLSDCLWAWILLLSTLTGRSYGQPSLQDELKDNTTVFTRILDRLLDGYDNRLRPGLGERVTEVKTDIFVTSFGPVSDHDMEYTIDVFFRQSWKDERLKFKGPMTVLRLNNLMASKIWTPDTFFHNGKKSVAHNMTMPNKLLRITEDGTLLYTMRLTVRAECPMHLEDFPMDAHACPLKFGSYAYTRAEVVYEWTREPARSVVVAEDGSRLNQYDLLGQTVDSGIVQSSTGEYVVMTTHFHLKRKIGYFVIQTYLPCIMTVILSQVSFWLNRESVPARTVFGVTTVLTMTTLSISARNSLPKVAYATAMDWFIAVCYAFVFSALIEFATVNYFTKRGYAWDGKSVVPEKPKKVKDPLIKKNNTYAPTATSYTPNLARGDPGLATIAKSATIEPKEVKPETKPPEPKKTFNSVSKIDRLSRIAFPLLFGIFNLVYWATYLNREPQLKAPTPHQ
T1 sequence (P47870 whole entry): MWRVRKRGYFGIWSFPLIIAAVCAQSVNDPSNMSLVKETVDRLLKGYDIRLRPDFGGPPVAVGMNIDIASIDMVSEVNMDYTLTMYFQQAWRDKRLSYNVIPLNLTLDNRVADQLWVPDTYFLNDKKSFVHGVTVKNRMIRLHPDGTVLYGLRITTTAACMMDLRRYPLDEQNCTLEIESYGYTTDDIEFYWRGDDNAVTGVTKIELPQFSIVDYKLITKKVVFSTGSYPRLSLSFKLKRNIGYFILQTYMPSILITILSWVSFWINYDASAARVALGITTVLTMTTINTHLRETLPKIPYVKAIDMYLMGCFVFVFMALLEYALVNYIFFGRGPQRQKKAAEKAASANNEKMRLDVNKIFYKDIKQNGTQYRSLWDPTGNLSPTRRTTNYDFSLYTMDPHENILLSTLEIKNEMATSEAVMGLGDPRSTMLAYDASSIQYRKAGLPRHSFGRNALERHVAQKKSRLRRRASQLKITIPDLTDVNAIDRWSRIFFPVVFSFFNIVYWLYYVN
T1 sequence (P18507 whole entry): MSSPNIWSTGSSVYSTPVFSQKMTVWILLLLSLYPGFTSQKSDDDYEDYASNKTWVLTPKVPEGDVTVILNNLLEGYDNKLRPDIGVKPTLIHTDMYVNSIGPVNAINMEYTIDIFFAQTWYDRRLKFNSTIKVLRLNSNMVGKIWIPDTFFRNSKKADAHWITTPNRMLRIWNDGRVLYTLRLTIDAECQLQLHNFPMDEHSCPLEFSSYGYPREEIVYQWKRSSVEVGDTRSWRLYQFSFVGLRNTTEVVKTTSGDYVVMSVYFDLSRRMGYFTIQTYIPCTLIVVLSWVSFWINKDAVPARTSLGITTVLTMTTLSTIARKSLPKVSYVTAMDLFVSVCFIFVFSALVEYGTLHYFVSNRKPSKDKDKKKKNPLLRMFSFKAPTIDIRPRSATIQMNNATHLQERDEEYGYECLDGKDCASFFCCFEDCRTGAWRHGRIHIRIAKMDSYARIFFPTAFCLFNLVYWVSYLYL
Nature of the test: Positive allosteric modulation of GABAA receptor alpha1beta2gamma2 (unknown origin) expressed in mouse LTK cells assessed as potentiation of GABA-mediated increase in channel current under holding potential at -80 mV preincubated for 30 secs followed by GABA stimulation for 2 secs by automated patch clamp assay. In kind it is cell-based.
Conditions: not given
For orientation: The patch-clamp technique gives a direct electrical read-out from membranes.
Regarding `Cc1cnnn1CC(=O)[C@H]1CC[C@H]2[C@@H]3CC[C@@H]4C[C@](C)(O)CC[C@@H]4[C@H]3CC[C@]12C`, the EC50 was 1600 nM.

Consider `C[C@@]1(O)CC[C@H]2[C@H](CC[C@@H]3[C@@H]2CC[C@]2(C)[C@@H](C(=O)Cn4cc([N+](=O)[O-])cn4)CC[C@@H]32)C1`, for which the EC50 worked out at 1160 nM.

In the case of `C[C@@]1(O)CC[C@H]2[C@H](CC[C@@H]3[C@@H]2CC[C@]2(C)[C@@H](C(=O)Cn4cc(C(N)=O)cn4)CC[C@@H]32)C1`, the EC50 is more than 3000 nM.

For `COc1cnn(CC(=O)[C@H]2CC[C@H]3[C@@H]4CC[C@@H]5C[C@](C)(O)CC[C@@H]5[C@H]4CC[C@]23C)c1`, the EC50 was 1760 nM.

The next test concerns the target Gamma-aminobutyric acid receptor subunit alpha-4/beta3/delta (Homo sapiens, UniProt O14764+P28472+P48169). Nature of the test: Positive allosteric modulation of GABAA receptor alpha4beta3delta (unknown origin) expressed in CHO cells assessed as potentiation of GABA-mediated increase in channel current under holding potential at -80 mV preincubated for 30 secs followed by GABA stimulation for 2 secs by manual patch clamp assay. In kind it is cell-based.
Conditions: not given
For `Cc1cnnn1CC(=O)[C@H]1CC[C@H]2[C@@H]3CC[C@@H]4C[C@](C)(O)CC[C@@H]4[C@H]3CC[C@]12C`, the EC50 worked out at 2010 nM.

For `COc1cnn(CC(=O)[C@H]2CC[C@H]3[C@@H]4CC[C@@H]5C[C@](C)(O)CC[C@@H]5[C@H]4CC[C@]23C)c1`, the concentration for a half-maximal effect (EC50) came out at 2050 nM.

In the next test the target is GABA-A receptor alpha-4/beta-3/delta (Homo sapiens, UniProt P28472+P48169+). As to the kind of experiment: Positive allosteric modulation of GABAA receptor alpha4beta3delta (unknown origin) expressed in CHO cells assessed as potentiation of GABA-mediated increase in channel current under holding potential at -80 mV at 0.01 to 10 uM preincubated for 30 secs followed by GABA stimulation for 2 secs by manual patch clamp assay relative to GABA. As to conditions: 2 s. In kind it is cell-based.
Chain of GABA-A receptor alpha-4/beta-3/delta (P28472 whole entry): as the sequence (P28472 whole entry) above
Chain of GABA-A receptor alpha-4/beta-3/delta (P48169 whole entry): as the sequence (P48169 whole entry) above
Chain of GABA-A receptor alpha-4/beta-3/delta (Q06278 whole entry, further chain): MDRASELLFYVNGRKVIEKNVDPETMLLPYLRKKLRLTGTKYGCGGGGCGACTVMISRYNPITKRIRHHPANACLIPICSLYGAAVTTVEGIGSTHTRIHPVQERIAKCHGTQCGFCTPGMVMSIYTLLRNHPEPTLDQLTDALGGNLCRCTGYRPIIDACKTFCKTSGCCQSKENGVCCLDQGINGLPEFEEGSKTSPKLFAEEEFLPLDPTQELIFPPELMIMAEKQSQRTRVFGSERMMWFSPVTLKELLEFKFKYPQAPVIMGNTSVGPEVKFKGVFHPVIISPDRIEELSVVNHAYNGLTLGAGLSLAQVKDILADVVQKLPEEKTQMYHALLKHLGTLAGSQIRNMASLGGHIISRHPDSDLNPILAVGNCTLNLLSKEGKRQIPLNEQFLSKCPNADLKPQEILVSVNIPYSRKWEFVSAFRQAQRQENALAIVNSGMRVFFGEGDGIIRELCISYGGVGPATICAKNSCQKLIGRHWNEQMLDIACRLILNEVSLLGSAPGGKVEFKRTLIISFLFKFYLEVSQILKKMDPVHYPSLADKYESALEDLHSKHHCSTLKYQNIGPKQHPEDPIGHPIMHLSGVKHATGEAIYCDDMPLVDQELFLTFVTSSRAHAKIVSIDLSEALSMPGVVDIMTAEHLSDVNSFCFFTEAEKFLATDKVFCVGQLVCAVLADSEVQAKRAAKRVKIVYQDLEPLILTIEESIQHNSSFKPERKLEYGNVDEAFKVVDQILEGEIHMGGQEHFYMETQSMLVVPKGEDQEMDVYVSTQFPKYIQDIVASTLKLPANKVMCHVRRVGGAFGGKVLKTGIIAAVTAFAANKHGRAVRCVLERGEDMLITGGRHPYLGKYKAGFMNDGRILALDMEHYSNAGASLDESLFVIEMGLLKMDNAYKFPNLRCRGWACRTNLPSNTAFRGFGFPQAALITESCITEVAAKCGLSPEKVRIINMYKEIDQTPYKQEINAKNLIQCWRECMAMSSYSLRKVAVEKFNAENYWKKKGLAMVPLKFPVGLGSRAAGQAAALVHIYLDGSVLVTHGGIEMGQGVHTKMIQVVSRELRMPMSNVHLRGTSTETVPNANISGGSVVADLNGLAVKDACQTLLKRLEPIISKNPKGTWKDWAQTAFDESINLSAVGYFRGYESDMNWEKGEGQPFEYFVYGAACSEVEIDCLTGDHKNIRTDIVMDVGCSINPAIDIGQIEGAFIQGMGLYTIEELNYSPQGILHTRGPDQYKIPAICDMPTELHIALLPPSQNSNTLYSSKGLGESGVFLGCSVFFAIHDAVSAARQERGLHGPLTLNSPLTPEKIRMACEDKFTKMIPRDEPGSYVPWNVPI
Consider `COc1cnn(CC(=O)[C@H]2CC[C@H]3[C@@H]4CC[C@@H]5C[C@](C)(O)CC[C@@H]5[C@H]4CC[C@]23C)c1`, for which the Emax was 750%.

Another test has as its target GABA-A receptor; alpha-1/beta-2/gamma-2 (Homo sapiens) (UniProt P14867+P47870+P18507). Nature of the test: Positive allosteric modulation of GABAA receptor alpha1beta2gamma2 (unknown origin) expressed in mouse LTK cells assessed as potentiation of GABA-mediated increase in channel current under holding potential at -80 mV at 0.01 to 10 uM preincubated for 30 secs followed by GABA stimulation for 2 secs by automated patch clamp assay relative to GABA. In kind it is cell-based.
Conditions: not given
Turning to `Cc1cnnn1CC(=O)[C@H]1CC[C@H]2[C@@H]3CC[C@@H]4C[C@](C)(O)CC[C@@H]4[C@H]3CC[C@]12C`, the maximal response (Emax) amounted to 1120%.

With `C[C@@]1(O)CC[C@H]2[C@H](CC[C@@H]3[C@@H]2CC[C@]2(C)[C@@H](C(=O)Cn4cc([N+](=O)[O-])cn4)CC[C@@H]32)C1`, the Emax worked out at 440%.

Turning to `C[C@@]1(O)CC[C@H]2[C@H](CC[C@@H]3[C@@H]2CC[C@]2(C)[C@@H](C(=O)Cn4cc(C(N)=O)cn4)CC[C@@H]32)C1`, the Emax was more than 357%.

As for `COc1cnn(CC(=O)[C@H]2CC[C@H]3[C@@H]4CC[C@@H]5C[C@](C)(O)CC[C@@H]5[C@H]4CC[C@]23C)c1`, the Emax came out at 434%.
